From ChEMBL document CHEMBL5154923 (J Med Chem, 2022)
pEC50, pIC50, pKd: −log10 of the molar value. Calls of active or inactive are those of the source. No cut-off for these calls is given here.

How the values were obtained:
[1] = biological target: T1, Serine/threonine-protein kinase 17A (Homo sapiens) (UniProt Q9UEE5); experiment: Binding affinity to human N-terminal His-tagged/ TEV cleavage fused DRAK1 (39 to 369 residues) expressed in Escherichia coli assessed as change in melting temperature at 10 uM by SYPRO orange dye based DSF assay
T1 sequence (whole entry): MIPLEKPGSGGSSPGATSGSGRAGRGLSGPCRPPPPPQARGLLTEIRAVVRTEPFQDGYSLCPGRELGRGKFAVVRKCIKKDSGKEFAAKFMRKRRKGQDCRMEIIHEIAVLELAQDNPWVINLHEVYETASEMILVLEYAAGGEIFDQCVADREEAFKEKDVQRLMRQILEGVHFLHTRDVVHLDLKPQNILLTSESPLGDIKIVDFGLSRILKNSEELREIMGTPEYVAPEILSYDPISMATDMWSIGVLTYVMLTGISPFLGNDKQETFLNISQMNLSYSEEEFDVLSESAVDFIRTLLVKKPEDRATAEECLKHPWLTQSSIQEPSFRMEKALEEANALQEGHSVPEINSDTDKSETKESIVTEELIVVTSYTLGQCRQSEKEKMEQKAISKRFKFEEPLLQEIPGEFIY

[2] = biological target: T2, Serine/threonine-protein kinase 17A (Homo sapiens, UniProt Q9UEE5); experiment: Inhibition of human N-terminal His-tagged/ TEV cleavage fused DRAK1 (39 to 369 residues) transfected in HEK293T cells using NanoBRET NanoGlo as substrate incubated for 2 hrs by NanoBRET assay; format: cell-based
T2 sequence (Q9UEE5 whole entry): T1 sequence (whole entry)

[3] = Binding affinity to wild type full length human CK2alpha2 (1 to 350 residues) expressed in mammalian expression system assessed as change in melting temperature by SYPRO orange dye based DSF assay
[4] = biological target: T3, Casein kinase II subunit alpha (Homo sapiens, UniProt P68400); experiment: Binding affinity to wild type full length human CK2alpha1 (1 to 391 residues) expressed in mammalian expression system assessed as change in melting temperature at 10 uM by SYPRO orange dye based DSF assay
Target sequence in this assay (P68400 whole entry, looked up, the tested form may be a part): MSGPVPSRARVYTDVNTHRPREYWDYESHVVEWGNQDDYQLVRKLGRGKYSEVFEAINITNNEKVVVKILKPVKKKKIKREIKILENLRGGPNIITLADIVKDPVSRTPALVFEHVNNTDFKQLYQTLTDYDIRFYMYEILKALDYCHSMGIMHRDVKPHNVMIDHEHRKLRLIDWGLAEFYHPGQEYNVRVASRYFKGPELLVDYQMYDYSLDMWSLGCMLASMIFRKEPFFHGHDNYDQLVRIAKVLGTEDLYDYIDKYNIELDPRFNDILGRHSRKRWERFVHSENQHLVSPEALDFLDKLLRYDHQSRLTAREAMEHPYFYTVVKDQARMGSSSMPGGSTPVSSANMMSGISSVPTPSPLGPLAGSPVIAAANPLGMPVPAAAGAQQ

[5] = biological target: T2, Serine/threonine-protein kinase 17A; experiment: Inhibition of human N-terminal His-tagged/ TEV cleavage fused DRAK1 (39 to 369 residues) expressed in Escherichia coli using KKLNRTLSFAEPG peptide as substrate in presence of [gamma-33P]ATP by radiometric based scintillation proximity assay
LN-229 = experiment: Antiproliferative activity against human LN-229 cells assessed as reduction in cell viability after 1 to 7 days by resazurin dye based fluorimetric analysis; format: functional
T98G [6] = experiment: Antiproliferative activity against human T98G cells assessed as reduction in cell viability measured after 1 to 7 days by resazurin dye based fluorimetric analysis; format: functional
[7] = Cytotoxicity against human MRC9 cells assessed as increase in total apoptotic cells incubated for 36 hrs by Annexin V staining based method; format: toxicity, cell-based
HEK-293T [8] = experiment: Cytotoxicity against human HEK293T cells at 1 uM incubated for 36 hrs; format: toxicity, cell-based
[9] = biological target: T3, Casein kinase II subunit alpha; experiment: Inhibition of human CK2alpha1 using RRRDDDSDDD peptide as substrate in presence of [gamma-33P]ATP by radiometric based scintillation proximity assay
Target sequence in this assay (P68400 whole entry, the tested form may be a part): as the sequence (P68400 whole entry, looked up, the tested form may be a part) above

[10] = Cytotoxicity against human HEK293T cells assessed as increase in total apoptotic cells incubated for 36 hrs by Annexin V staining based method; format: toxicity, cell-based, HEK-293T
[11] = Induction of morphological changes in human MRC9 cells assessed as mitochondrial damage at 1 to 10 uM incubated for 18 hrs by confocal fluorescence microscopic analysis; format: toxicity, cell-based; conditions: mrc9, 18 h, dose 1-10 µM
[12] = biological target: T4, BMP-2-inducible protein kinase (Homo sapiens, UniProt Q9NSY1); experiment: Inhibition of BIKE (unknown origin) transfected in HEK293T cells using NanoBRET NanoGlo as substrate incubated for 2 hrs by NanoBRET assay; format: cell-based
Target sequence in this assay (Q9NSY1 whole entry): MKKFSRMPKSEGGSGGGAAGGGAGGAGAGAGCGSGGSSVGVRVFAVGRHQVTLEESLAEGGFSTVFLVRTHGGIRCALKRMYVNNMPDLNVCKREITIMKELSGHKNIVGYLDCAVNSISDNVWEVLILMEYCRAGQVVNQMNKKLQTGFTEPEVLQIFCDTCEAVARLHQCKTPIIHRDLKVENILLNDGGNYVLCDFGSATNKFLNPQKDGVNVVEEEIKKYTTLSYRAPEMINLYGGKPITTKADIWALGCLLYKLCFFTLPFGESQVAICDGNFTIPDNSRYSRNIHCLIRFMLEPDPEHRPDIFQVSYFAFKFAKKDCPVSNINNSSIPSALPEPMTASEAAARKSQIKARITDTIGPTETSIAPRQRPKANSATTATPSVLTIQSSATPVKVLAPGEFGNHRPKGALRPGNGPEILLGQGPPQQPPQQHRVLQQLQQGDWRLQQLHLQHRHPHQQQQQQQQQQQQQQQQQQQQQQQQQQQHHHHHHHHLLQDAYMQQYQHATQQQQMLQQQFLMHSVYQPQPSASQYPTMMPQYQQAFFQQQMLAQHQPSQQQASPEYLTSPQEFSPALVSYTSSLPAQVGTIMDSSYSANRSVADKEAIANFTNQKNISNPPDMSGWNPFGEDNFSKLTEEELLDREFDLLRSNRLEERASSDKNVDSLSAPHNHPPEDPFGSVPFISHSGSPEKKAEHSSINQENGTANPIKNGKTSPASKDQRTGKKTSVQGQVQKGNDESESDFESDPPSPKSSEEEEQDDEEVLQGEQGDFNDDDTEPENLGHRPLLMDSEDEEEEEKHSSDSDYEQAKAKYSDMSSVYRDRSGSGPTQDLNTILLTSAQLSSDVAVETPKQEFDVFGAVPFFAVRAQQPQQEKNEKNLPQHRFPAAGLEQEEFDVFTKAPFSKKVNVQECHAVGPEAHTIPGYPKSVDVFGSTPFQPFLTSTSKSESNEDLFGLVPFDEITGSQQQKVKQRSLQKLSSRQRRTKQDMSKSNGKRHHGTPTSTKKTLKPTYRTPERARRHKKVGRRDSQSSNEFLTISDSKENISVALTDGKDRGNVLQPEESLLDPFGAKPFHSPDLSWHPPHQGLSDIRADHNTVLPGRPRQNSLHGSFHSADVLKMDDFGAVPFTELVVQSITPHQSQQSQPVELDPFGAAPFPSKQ

[13] = biological target: AP2-associated protein kinase 1 (Homo sapiens) (UniProt Q2M2I8); experiment: Binding affinity to AAK1 (unknown origin) assessed as change in melting temperature at 10 uM by SYPRO orange dye based DSF assay
Chain of AP2-associated protein kinase 1 (Homo sapiens) (Q2M2I8 whole entry, looked up): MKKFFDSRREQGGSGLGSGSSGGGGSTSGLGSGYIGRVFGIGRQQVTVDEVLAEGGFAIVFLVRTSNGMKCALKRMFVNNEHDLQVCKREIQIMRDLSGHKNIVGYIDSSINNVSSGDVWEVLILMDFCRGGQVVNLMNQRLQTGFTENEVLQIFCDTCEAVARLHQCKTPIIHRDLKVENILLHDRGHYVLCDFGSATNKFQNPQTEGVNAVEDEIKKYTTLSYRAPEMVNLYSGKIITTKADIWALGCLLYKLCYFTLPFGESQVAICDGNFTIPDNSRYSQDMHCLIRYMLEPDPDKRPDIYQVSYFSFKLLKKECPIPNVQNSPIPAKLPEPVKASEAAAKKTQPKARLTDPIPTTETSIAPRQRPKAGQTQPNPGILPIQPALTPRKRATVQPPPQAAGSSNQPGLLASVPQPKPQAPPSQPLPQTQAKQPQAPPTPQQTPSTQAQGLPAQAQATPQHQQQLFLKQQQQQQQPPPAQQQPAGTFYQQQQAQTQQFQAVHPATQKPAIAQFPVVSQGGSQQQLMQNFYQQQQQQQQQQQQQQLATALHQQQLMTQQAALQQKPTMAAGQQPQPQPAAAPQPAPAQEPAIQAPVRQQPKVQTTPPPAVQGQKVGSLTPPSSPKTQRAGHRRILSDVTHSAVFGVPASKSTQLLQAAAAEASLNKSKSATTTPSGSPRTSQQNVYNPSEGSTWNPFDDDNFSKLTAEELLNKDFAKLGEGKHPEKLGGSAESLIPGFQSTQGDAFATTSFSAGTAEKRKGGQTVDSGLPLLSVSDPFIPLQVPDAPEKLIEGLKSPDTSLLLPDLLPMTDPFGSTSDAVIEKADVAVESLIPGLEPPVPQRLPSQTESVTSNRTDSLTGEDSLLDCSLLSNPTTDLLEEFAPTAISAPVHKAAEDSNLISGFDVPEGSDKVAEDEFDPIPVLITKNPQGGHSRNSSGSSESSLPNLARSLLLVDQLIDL

HEK-293T [14] = experiment: Cytotoxicity against human HEK293T cells assessed as increase in total apoptotic cells at 10 uM incubated for 18 hrs by Annexin V staining based method; format: toxicity, cell-based
HEK-293T [15] = experiment: Induction of morphological changes in human HEK293T cells assessed as mitochondrial damage at 1 to 10 uM incubated for 18 hrs by confocal fluorescence microscopic analysis; format: toxicity, cell-based; conditions: dose 1-10 µM
[16] = biological target: T4, BMP-2-inducible protein kinase; experiment: Binding affinity to BIKE (unknown origin) assessed as change in melting temperature at 10 uM by SYPRO orange dye based DSF assay
Target sequence in this assay (Q9NSY1 whole entry, looked up): as the sequence (Q9NSY1 whole entry) above

[17] = Induction of morphological changes in human MRC9 cells assessed as microtubule damage at 1 to 10 uM incubated for 18 hrs by confocal fluorescence microscopic analysis; format: toxicity, cell-based; conditions: mrc9, 18 h, dose 1-10 µM
[18] = Inhibition of human CK2alpha2 using RRRDDDSDDD peptide as substrate in presence of [gamma-33P]ATP by radiometric based scintillation proximity assay
[19] = Inhibition of CK2alpha2 (unknown origin) transfected in HEK293T cells using NanoBRET NanoGlo as substrate incubated for 2 hrs by NanoBRET assay; format: cell-based; conditions: Homo sapiens, HEK-293T
[20] = biological target: T5, Cyclin-G-associated kinase (Homo sapiens, UniProt O14976); experiment: Inhibition of GAK (unknown origin) transfected in HEK293T cells using NanoBRET NanoGlo as substrate incubated for 2 hrs by NanoBRET assay; format: cell-based
T5 sequence (O14976 whole entry): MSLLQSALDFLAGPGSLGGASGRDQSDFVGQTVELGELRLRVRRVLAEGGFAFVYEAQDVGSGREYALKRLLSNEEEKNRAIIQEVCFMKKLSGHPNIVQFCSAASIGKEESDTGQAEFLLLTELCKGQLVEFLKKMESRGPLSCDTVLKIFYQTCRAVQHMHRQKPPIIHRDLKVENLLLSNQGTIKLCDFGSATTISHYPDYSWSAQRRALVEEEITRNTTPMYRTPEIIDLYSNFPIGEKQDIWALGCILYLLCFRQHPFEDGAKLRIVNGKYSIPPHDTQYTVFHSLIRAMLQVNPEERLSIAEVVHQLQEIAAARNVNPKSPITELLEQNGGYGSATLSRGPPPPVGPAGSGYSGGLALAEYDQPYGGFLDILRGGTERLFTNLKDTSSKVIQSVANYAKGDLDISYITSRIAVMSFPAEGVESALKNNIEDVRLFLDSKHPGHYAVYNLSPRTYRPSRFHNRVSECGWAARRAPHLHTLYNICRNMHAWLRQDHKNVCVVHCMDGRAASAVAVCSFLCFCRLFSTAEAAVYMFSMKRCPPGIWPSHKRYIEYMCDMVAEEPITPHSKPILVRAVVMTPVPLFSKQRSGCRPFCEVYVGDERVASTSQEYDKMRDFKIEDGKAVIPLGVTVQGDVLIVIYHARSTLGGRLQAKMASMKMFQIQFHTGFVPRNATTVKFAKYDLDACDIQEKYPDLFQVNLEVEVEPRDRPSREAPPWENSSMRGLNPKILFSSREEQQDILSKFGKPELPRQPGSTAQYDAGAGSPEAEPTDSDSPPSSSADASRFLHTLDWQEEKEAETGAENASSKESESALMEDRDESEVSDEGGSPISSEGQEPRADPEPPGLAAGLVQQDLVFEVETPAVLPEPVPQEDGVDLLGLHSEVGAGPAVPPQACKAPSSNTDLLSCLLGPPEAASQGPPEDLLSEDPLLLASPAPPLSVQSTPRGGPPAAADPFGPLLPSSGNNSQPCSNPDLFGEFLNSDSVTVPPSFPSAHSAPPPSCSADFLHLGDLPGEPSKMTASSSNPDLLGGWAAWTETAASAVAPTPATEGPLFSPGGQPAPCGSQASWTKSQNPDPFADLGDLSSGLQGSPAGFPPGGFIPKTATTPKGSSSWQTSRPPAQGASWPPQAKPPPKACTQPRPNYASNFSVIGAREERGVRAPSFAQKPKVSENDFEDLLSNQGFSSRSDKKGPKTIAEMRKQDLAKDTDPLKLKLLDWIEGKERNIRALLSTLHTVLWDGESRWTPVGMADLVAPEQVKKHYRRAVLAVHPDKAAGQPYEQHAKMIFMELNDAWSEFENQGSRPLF

[21] = biological target: T1, Serine/threonine-protein kinase 17A (Homo sapiens); experiment: Inhibition of human N-terminal His-tagged/ TEV cleavage fused DRAK1 (39 to 369 residues) expressed in Escherichia coli assessed as change in entropy by isothermal titration calorimetry
HEK-293T [22] = experiment: Cytotoxicity against human HEK293T cells assessed as increase in total apoptotic cells at 10 uM incubated for 36 hrs by Annexin V staining based method; format: toxicity, cell-based
[23] = Cytotoxicity against human MRC9 cells at 1 uM incubated for 36 hrs; format: toxicity, cell-based; conditions: mrc9, 36 h
[24] = biological target: T2, Serine/threonine-protein kinase 17A; experiment: Binding affinity to human N-terminal His-tagged/ TEV cleavage fused DRAK1 (39 to 369 residues) expressed in Escherichia coli by isothermal titration calorimetry
LN-18 = experiment: Antiproliferative activity against human LN-18 cells assessed as reduction in cell viability after 1 to 7 days by resazurin dye based fluorimetric analysis; format: functional
HEK-293T [25] = experiment: Induction of morphological changes in human HEK293T cells assessed as microtubule damage at 1 to 10 uM incubated for 18 hrs by confocal fluorescence microscopic analysis; format: toxicity, cell-based; conditions: dose 1-10 µM
T98G [26] = experiment: Induction of morphological changes in human T98G cells assessed as change in cell shape at 12.5 uM incubated for 5 days by microscopy analysis; format: functional, cell-based; conditions: time 5.0 day
U2OS = experiment: Cytotoxicity against human U2OS cells assessed as increase in total apoptotic cells at 10 uM incubated for 36 hrs by Annexin V staining based method; format: functional, cell-based
[27] = biological target: T1, Serine/threonine-protein kinase 17A (Homo sapiens); experiment: Inhibition of human N-terminal His-tagged/ TEV cleavage fused DRAK1 (39 to 369 residues) expressed in Escherichia coli assessed as gibbs free energy change by isothermal titration calorimetry
[28] = biological target: T6, Serine/threonine-protein kinase 17B (Homo sapiens, UniProt O94768); experiment: Inhibition of DRAK2 (unknown origin) transfected in HEK293T cells using NanoBRET NanoGlo as substrate incubated for 2 hrs by NanoBRET assay; format: cell-based
T6 sequence (O94768 whole entry): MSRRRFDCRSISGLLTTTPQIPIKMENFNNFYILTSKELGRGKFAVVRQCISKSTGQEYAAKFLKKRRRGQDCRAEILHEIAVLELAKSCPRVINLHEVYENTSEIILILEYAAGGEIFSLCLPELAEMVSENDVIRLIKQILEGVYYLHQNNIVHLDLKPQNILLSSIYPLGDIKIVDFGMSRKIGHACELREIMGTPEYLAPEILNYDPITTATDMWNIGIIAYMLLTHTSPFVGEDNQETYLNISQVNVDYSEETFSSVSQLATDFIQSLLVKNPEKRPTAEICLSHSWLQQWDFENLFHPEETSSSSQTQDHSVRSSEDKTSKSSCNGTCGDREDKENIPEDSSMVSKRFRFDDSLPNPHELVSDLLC

[29] = biological target: T3, Casein kinase II subunit alpha; experiment: Inhibition of CK2alpha1(unknown origin) transfected in HEK293T cells using NanoBRET NanoGlo as substrate incubated for 2 hrs by NanoBRET assay; format: cell-based
Target sequence in this assay (P68400 whole entry, the tested form may be a part): as the sequence (P68400 whole entry, looked up, the tested form may be a part) above

HEK-293T [30] = experiment: Cytotoxicity against human HEK293T cells at 1 uM incubated for 18 hrs; format: toxicity, cell-based
[31] = biological target: T1, Serine/threonine-protein kinase 17A (Homo sapiens); experiment: Inhibition of human N-terminal His-tagged/ TEV cleavage fused DRAK1 (39 to 369 residues) expressed in Escherichia coli assessed as change in enthalpy by isothermal titration calorimetry
[32] = Cytotoxicity against human MRC9 cells assessed as increase in total apoptotic cells at 10 uM incubated for 36 hrs by Annexin V staining based method; format: toxicity, cell-based; conditions: mrc9, 36 h
D-247MG = experiment: Antiproliferative activity against human D-247MG cells assessed as reduction in cell viability after 1 to 7 days by resazurin dye based fluorimetric analysis; format: functional

Compound `O=C(NCc1ccccc1)c1ccc2cc1OCCOCCNc1ccn3ncc-2c3n1` has a ΔTm [1] of 9.3 °C, a pIC50 [2] of 6.77 and a ΔTm [3] of 4.9 °C. It also gave a ΔTm [4] of 1.7 °C and a pIC50 [5] of 6.81.
Compound `O=C(O)c1ccc2cc1OCCOCCNc1ccn3ncc-2c3n1` has a ΔTm [1] of 7.9 °C, a ΔTm [3] of 11.3 °C and a ΔTm [4] of 10.6 °C.
For `CC(C)(C)NC(=O)c1ccc2cc1OCCOCCNc1ccn3ncc-2c3n1`, the pEC50 (LN-229) was 5.04, the pEC50 (T98G [6]) was 4.98 and the EC50 at 36 h [7] was > 10 µM. The ΔTm [1] was 11.3 °C, the Activity (HEK-293T [8]) was “Non-Toxic” and the pIC50 [9] was 6.02. The EC50 at 36 h [10] was > 10 µM, the Activity [11] was “Non-Toxic” and the pIC50 [12] was 5.10. For the same compound, the ΔTm [13] was > 5 °C, the Activity (HEK-293T [14]) was “Toxic” and the Activity (HEK-293T [15]) was “Non-Toxic”. For the same compound, the pIC50 [2] was 6.74, the ΔTm [16] was > 5 °C and the Activity [17] was “Non-Toxic”. For the same compound, the pIC50 [18] was 6.42, the pIC50 [19] was 4.41 and the pIC50 [20] was 4.62. The deltaS [21] was 11.1 cal/mol.K, the Activity (HEK-293T [22]) was “Toxic” and the Activity [23] was “Non-Toxic”. The pKd [24] was 7.68, the ΔTm [3] was 2.3 °C and the ΔTm [4] was 0.8 °C. The pEC50 (LN-18) was 4.95, the Activity (HEK-293T [25]) was “Non-Toxic” and the Activity (T98G [26]) was “Active”. The Activity (U2OS) was “Active”, the deltaG [27] was -10.6 kcal/mol and the pIC50 [28] was 5.08. The pIC50 [29] was 4.47, the Activity (HEK-293T [30]) was “Non-Toxic” and the deltaH [31] was -7.39 kcal/mol. The pIC50 [5] was 7.31, the Activity [32] was “Toxic” and the pEC50 (D-247MG) was 5.56.
